Like-named read-outs stand apart in the source and are kept apart here.
Key:
[1] = target: Bcl-2 (residues 1-207 A96T,G110R, Δ35-91, replaced with Bcl-xL35-50) (Homo sapiens, UniProt P10415, A37E/DEL42-87/G36T/INS34DVEEN/P40E/P88T/P90S/P91E/V35R/V89E); experiment: Bak peptide fluorescence polarization anisotropy competition assay, Bcl-2 selectivity; format: binding; settings: Table 3; FITC-Bak peptide 10 nM, Bcl-2 40 nM
Protocol: (§1) Compound affinity was measured using a fluorescence polarization anisotropy competition assay. Anisotropy measurements were carried out in 384-well, black, flat-bottom plates (Greiner Bio-one, Monroe, N.C., USA).
(§2) Compounds are diluted in DMSO in a 10-point, 3-fold serial dilution scheme. 2.5 uL compound is added to 47.5 uL of assay buffer containing FITC-Bak and protein, for a final DMSO concentration of 5% and a top concentration of 20 uM. […] The plate was mixed and incubated for 90 minutes at room temperature.

[2] = target: Bcl-xL (residues 1-209, loop 45-86 deleted) (Homo sapiens (Human), UniProt Q07817, DEL45-86); experiment: Bak peptide fluorescence polarization anisotropy competition assay, Bcl-xL selectivity; format: binding; settings: Table 3; FITC-Bak peptide 10 nM, Bcl-xL 4 nM
Bcl-xL (residues 1-209, loop 45-86 deleted), sequence (Q07817 other isoform, or with tags, fused parts or gaps del 45-86): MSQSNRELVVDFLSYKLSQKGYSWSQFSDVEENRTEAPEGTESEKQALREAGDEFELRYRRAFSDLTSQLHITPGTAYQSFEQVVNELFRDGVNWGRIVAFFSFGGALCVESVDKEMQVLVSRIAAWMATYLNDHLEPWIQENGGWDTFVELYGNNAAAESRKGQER
Protocol: as §1, §2

[3] = system: K562; experiment: Cellular proliferation, CellTiter-Glo, K562; format: cell-based; settings: Homo sapiens; K562, 10% FBS, 72 hours
Protocol: (§3) To evaluate compound effect on cellular proliferation, cells were plated at 1,000 cells/well in 96-well tissue culture plates in a total volume of 90 uL medium supplemented with 10% FBS (Sigma, Saint Louis, Mo.). 24 hours later, 10 uL of compound (in a 2-fold serial dilution) is added to the cells for a top concentration of 50 uM and a final DMSO concentration <1%. After 72 hours, cell number was measured using the CellTiter-Glo Luminescent assay according to manufacturer's recommendations (Promega, Madison, Wis.). A viability assay in reduced serum was also conducted. Cells were plated at 5,000 cells/well in 96-well plates in a total volume of 100 uL medium supplemented with 10% FBS (Sigma, Saint Louis, Mo.). 24 hours later, the medium was replaced with 90 uL medium containing 1% FBS and the assay conducted as described. IC50 values were determined by plotting growth against compound concentration in a 4-parameter logisitic model in XLFit.

[4] = system: NCI-929; experiment: Cellular proliferation, CellTiter-Glo, NCI-929; format: cell-based; settings: Homo sapiens; NCI-929, 10% FBS, 72 hours
Protocol: as §3

[5] = system: MDA-MB-468; experiment: Cellular proliferation, CellTiter-Glo, MDA-MB-468; format: cell-based; settings: Homo sapiens, MDA-MB-468, 72 h, read-out: IC50 on cellular proliferation, MDA-MB-468
Protocol: as §3

[6] = system: MDA-MB-231; experiment: Cellular proliferation, CellTiter-Glo, MDA-MB-231; format: cell-based; settings: Homo sapiens; MDA-MB-231, 10% FBS, 72 hours
Protocol: as §3

[7] = system: K562; experiment: Cellular viability in reduced serum, CellTiter-Glo, K562; format: cell-based; settings: Homo sapiens; K562, reduced serum (1% FBS)
Protocol: as §3

[8] = system: NCI-929; experiment: Cellular viability in reduced serum, CellTiter-Glo, NCI-929; format: cell-based; settings: Homo sapiens; NCI-929, reduced serum (1% FBS)
Protocol: as §3

[9] = system: MDA-MB-468; experiment: Cellular viability in reduced serum, CellTiter-Glo, MDA-MB-468; format: cell-based; settings: Homo sapiens, MDA-MB-468, read-out: IC50 on cellular viability, MDA-MB-468
Protocol: as §3

[10] = system: MDA-MB-231; experiment: Cellular viability in reduced serum, CellTiter-Glo, MDA-MB-231; format: cell-based; settings: Homo sapiens; MDA-MB-231, reduced serum (1% FBS)
Protocol: as §3

[11] = target: recombinant Mcl-1 (residues 172-327) (Homo sapiens (Human), UniProt Q07820); experiment: Bak peptide fluorescence polarization anisotropy competition assay, Mcl-1; format: binding; settings: read-out: Ki for inhibition of Mcl-1
recombinant Mcl-1 (residues 172-327), sequence (Q07820 172-327): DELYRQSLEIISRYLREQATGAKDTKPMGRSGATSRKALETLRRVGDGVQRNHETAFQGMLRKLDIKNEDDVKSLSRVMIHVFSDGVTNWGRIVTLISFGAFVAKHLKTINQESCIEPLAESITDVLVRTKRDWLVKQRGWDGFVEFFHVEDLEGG

[12] = Table 2, Ki range, FITC-Bak peptide 10 nM, Mcl-1 14 nM

Bcl-2 (residues 1-207 A96T,G110R, Δ35-91, replaced with Bcl-xL35-50), sequence (P10415 with tags, fused parts or gaps A37E/DEL42-87/G36T/INS34DVEEN/P40E/P88T/P90S/P91E/V35R/V89E): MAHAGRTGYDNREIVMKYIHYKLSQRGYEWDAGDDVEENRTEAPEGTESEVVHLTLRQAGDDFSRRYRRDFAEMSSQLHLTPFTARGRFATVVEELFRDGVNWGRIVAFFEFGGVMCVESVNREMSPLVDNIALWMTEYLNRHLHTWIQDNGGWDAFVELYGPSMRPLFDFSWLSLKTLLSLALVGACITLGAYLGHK

Row | IC50 [3] [µM] | IC50 [5] [µM] | IC50 [6] [µM] | IC50 [7] [µM] | IC50 [9] [µM] | IC50 [10] [µM] | Ki [11, 12] [µM] | Ki [11] [µM] | SMILES | Ki [1] [µM] | Ki [2] [µM] | IC50 [4] [µM] | IC50 [8] [µM]
1 | – | – | – | – | – | – | – | – | O=C(O)c1sc2cc(Cl)ccc2c1CCCOc1cccc2ccccc12 [Example 5, 6-chloro-3-(3-(naphthalen-1-yloxy)propyl)benzo[b]thiophene-2-carboxylic acid] | 1.1 | – | – | –
2 | – | – | – | – | – | – | – | – | Cc1cc(OCCCc2c(C(=O)O)sc3cc(Cl)ccc23)cc(C)c1Cl [Example 6] | 0.99 | 2.4 | – | –
3 | – | – | – | – | – | – | – | – | O=C(O)c1oc2ccccc2c1CCCOc1cccc2ccccc12 [Example 21, 3-(3-(naphthalen-1-yloxy)propyl)benzofuran-2-carboxylic acid] | 4.6 | – | – | –
4 | 17.9 | 13.8 | 16.9 | 2.6 | 11.2 | 12.9 | – | – | Cc1cc(OCCCc2c(C(=O)NS(=O)(=O)c3ccccc3)[nH]c3c(-c4cccnc4C)cccc23)cc(C)c1Cl [Example 97, 3-(3-(4-chloro-3,5-dimethylphenoxy)propyl)-7-(2-methylpyridin-3-yl)-N-(phenylsulfonyl)-1H-indole-2-carboxamide] | – | – | 23.3 | 5.1
5 | > 50 | 50 | > 50 | 10.7 | 26.8 | 18.4 | ≤ 0.1 | – | Cc1cc(OCCCc2c(C(=O)NS(=O)(=O)CCNC(=O)c3cccn3C)[nH]c3c(-c4c(CO)nn(C)c4C)cccc23)cc(C)c1Cl [Example 206, 3-(3-(4-chloro-3,5-dimethylphenoxy)propyl)-7-(3-(hydroxymethyl)-1,5-dimethyl-1H-1-pyrazol-4-yl)-N-((2-(1-methyl-1H-pyrrole-2-carboxamido)ethyl)sulfonyl)-1H-indole-2-carboxamide] | – | – | > 50 | 33.9
6 | > 50 | 45.7 | > 50 | 10.1 | 14.8 | 14.2 | ≤ 0.1 | – | Cc1cc(OCCCc2c(C(=O)NS(=O)(=O)CCNC(=O)c3cccn3Cc3ccccc3)[nH]c3c(-c4c(CO)nn(C)c4C)cccc23)cc(C)c1Cl [Example 207, N-((2-(1-benzyl-1H-pyrrole-2-carboxamido)ethyl)sulfonyl)-3-(3-(4-chloro-3,5-dimethylphenoxy)propyl)-7-(3-(hydroxymethyl)-1,5-dimethyl-1H-pyrazol-4-yl)-1H-indole-2-carboxamide] | – | – | 30 | 12
7 | – | – | – | – | – | – | – | 0.101 to 0.299 | Cc1cc(OCCCc2c(C(=O)NS(=O)(=O)C3CCN(C(=O)CCc4ccccc4)CC3)[nH]c3cc(Cl)ccc23)cc(C)c1Cl [Example 310, 6-chloro-3-(3-(4-chloro-3,5-dimethylphenoxy)propyl)-N-((1-(3-phenylpropanoyl)piperidin-4-yl)sulfonyl)-1H-indole-2-carboxamide] | – | – | – | –
